In publication PMC5748833, “Synthesis and Biological Evaluation of Novel Hybrid Molecules Containing Purine, Coumarin and Isoxazoline or Isoxazole Moieties” (The Open Medicinal Chemistry Journal, 2017):

Tests used:
soybean lipoxygenase = target: T1, soybean lipoxygenase (Glycine max, UniProt P08170); assay: Soybean lipoxygenase inhibition in vitro; format: biochemical; conditions: for IC50: read-out: LOX IC50 μΜ
T1 construct: purchased Sigma Chemical, Co. (St. Louis, MO, USA)
T1 sequence (P08170 1-839): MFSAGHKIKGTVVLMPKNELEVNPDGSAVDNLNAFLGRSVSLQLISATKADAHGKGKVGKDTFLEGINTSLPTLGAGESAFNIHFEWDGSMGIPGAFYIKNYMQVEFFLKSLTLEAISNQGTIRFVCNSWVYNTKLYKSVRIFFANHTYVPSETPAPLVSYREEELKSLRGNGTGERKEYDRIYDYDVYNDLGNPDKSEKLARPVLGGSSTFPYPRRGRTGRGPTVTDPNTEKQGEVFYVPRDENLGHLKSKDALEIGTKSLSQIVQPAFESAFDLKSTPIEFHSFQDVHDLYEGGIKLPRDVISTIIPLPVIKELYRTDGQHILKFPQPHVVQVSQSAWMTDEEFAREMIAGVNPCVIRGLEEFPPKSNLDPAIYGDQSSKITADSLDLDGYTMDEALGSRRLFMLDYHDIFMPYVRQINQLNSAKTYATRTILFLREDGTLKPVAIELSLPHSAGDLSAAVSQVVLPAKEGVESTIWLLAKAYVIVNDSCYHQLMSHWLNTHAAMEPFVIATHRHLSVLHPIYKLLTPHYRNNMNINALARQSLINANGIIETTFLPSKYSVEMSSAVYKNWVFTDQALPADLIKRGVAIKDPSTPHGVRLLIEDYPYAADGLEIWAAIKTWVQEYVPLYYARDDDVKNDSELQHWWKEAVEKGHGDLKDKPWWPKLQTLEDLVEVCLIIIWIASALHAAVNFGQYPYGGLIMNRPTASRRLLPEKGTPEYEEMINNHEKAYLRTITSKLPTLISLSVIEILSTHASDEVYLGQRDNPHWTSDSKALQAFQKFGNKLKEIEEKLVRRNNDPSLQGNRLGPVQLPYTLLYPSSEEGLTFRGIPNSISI

[1] = Reducing activity of the stable radical DPPH; conditions: 100 μM compound, after 20 min
Procedure, shortened: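 Compounds (100 μM) mixed with equal volume of 100 μM DPPH in absolute ethanol at room temperature; absorbance at 517 nm read after 20 and 60 min against ethanol control. Activity given as RA% (reducing activity); NDGA standard.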

rat monoamine oxidase B = target: T2, rat monoamine oxidase B (Rattus norvegicus, UniProt P19643); assay: Inhibition of MAO-B (spectrofluorimetric method); format: biochemical; conditions: for MAO-B (%) @ 10μΜ: 10 μM compound
T2 construct: from tissue
T2 sequence (P19643 1-520): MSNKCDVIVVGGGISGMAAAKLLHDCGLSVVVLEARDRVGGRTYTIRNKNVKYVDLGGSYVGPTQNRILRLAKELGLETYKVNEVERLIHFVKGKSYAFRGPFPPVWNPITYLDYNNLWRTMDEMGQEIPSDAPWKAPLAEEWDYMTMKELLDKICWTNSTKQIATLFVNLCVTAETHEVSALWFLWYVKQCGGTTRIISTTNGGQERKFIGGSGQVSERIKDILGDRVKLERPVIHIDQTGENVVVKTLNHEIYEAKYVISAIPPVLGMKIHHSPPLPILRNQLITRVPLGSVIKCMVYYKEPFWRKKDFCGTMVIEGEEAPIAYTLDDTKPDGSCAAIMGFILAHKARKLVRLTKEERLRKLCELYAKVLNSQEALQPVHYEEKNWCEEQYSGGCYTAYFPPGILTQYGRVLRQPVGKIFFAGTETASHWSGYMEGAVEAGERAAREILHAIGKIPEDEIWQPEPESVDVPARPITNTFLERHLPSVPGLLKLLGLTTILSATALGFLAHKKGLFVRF
Source text: 2.2.2.6 Inhibition Study on MAOs in vitro
Inhibition of rat monoamine oxidase A and B was studied by means of a spectrofluorimetric method as previously detailed.

[2] = target: T3, electric eel acetylcholinesterase (eeAChE) (Electrophorus electricus, UniProt O42275); assay: biochemical; format: biochemical; conditions: read-out: eeAChE IC50 μΜ
T3 construct: purchased Sigma
Source text: (§1) 2.2.2.5 Inhibition Study on ChEs in vitro
(§2) In vitro inhibition of electric eel acetylcholinesterase (eeAChE; 463 U/mg, Sigma) and equine serum butyrylcholinesterase (esBChE; 13 U/mg, Sigma) was investigated with a 96-well plate procedure based on the classical Ellman’s spectrophotometric test, as already described.

[3] = target: T4, equine serum butyrylcholinesterase (esBChE) (Equus caballus, UniProt P81908); assay: Inhibition of esBChE (Ellman's test); format: biochemical; conditions: read-out: esBChE % inhibn. @ 10 μΜ
T4 construct: purchased Sigma; host or cells: equine serum
Source text: as §1, §2

T3 sequence (O42275 24-633): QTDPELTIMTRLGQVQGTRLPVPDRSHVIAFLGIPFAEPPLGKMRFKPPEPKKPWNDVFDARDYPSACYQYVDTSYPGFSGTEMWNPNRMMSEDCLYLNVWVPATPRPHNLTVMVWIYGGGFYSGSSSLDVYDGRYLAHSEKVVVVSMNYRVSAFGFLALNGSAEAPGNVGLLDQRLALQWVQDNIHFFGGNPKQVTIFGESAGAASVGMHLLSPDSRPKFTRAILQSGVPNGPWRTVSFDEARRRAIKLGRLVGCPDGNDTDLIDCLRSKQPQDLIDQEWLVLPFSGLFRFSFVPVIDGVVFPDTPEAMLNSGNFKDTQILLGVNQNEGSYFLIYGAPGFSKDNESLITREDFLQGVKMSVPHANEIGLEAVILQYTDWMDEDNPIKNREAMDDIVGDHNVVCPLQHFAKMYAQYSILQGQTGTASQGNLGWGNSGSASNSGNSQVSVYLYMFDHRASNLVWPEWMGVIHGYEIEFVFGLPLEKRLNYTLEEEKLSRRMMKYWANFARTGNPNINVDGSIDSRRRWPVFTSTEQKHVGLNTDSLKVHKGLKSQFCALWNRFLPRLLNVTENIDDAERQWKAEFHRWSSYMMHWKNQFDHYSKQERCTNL
T4 sequence (P81908 whole entry): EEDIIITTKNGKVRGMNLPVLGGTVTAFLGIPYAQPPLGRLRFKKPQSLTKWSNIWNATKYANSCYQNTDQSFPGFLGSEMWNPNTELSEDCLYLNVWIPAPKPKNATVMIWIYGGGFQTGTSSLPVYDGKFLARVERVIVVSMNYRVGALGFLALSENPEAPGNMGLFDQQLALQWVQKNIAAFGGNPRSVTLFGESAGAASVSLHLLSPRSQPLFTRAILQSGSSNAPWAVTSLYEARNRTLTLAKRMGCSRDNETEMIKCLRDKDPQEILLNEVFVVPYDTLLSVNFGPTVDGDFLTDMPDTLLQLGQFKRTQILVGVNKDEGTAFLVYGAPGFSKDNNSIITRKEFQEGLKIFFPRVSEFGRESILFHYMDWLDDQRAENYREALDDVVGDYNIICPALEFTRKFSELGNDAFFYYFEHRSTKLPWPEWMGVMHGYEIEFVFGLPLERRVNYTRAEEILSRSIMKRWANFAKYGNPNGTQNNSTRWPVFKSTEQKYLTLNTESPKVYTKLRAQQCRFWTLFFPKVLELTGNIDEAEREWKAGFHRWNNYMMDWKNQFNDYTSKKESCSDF

Row | Structure (SMILES) | %LOX @ 100μΜ (soybean lipoxygenase; 100 μM compound) | RA% @ 100μΜ (reducing activity, DPPH) [1] | IC50 (rat monoamine oxidase B; read-out: MAO-B IC50 μΜ) [µM] | IC50 [2] [µM] | inhibition at 10 µM [3] [%] | IC50 (soybean lipoxygenase) [µM] | MAO-B (%) @ 10μΜ (rat monoamine oxidase B)
1 | Cc1cc(=O)oc2ccc(OCC3=NOC(Cn4cnc5c(Cl)ncnc54)C3)cc12 (stereo not drawn) [11b] | no | 5% | 9.5 | 5.9 | 8 |  | 
2 | O=c1cc(OCC2CC(Cn3cnc4c(N5CCCCC5)ncnc43)=NO2)c2ccccc2o1 (stereo not drawn) [4f] |  | 3% |  | 1.4 | 36 | 53 | no
3 | O=c1cc(OCc2cc(Cn3cnc4c(N5CCOCC5)ncnc43)no2)c2ccccc2o1 [13i] |  | no |  | 5 | 18 | 76 | 9%
